In patent US8592404B2, “Derivatives of porphyrin, particularly chlorins and/or bacteriochlorins, and uses thereof in photodynamic therapy” (Universidade de Coimbra, priority 2004, dated 2013):
Where two headings read alike, the source gives them in different places.

Columns and labels:
[1] = Lifetime of the triplet state in aqueous solution; type: physicochemical
[2] = Lifetime of singlet oxygen; type: physicochemical; details: in deuterated water
[3] = Fluorescence quantum yield; type: physicochemical
[4] = Quantum yield of the formation of singlet oxygen (phosphorescence at 1270 nm versus reference photosensitizer TPPS); type: physicochemical; details: deuterated aqueous solution
Excerpt: According to the present invention, the reference photosensitizer used in meso-tetrakis(3-sulfophenyl)porphyrin (TPPS) whereof the value for the quantum yield of the formation of singlet oxygen in deuterated water is 0.64 at 7.4 pH (photochem. Photobiol, 70: 391, 1999).

[5] = deuterated water, 7.4 pH; cited from earlier work

Lifetime of the triplet state ([1]; air-saturated aqueous solution)	Lifetime of the triplet state ([1]; nitrogen-saturated aqueous solution)	Lifetime of singlet oxygen [2]	Fluorescence quantum yield [3]	Compound	Quantum yield of the formation of singlet oxygen [4]	Quantum yield of the formation of singlet oxygen [5]
3.88 μs	235 μs	65 μs	0.013	bacteriochlorin	greater than 30%	–
–	–	–	–	O=S(=O)(O)c1cccc(-c2c3nc(c(-c4cccc(S(=O)(=O)O)c4)c4ccc([nH]4)c(-c4cccc(S(=O)(=O)O)c4)c4nc(c(-c5cccc(S(=O)(=O)O)c5)c5ccc2[nH]5)C=C4)C=C3)c1 [TPPS, meso-tetrakis(3-sulfophenyl)porphyrin]	–	0.64
